Assay results from patent US20030181527A1, “Novel formulations of alpha-2,4-disulfophenyl-n-tert-butylnitrone” (priority 2000, published 2003).
Entries after “also recorded” stand apart in the source; their conditions may differ.

Assays:
[1] = Effect of chelator resin Chelex-100 on stability of concentrated aqueous solution; format: physicochemical; conditions: 100 mg/ml, 5.3 mM phosphate, pH 8.0
Method: A concentrated aqueous solution of α-(2,4-disulfophenyl)-N-tert-butylnitrone disodium salt (100 mg/ml) and disodium hydrogen phosphate (5.3 mM) at pH 8.0 was passed overnight through a column of the chelator resin, Chelex-100®. The resulting solution was placed in portions (8 ml) into 10 ml glass vials which were then sealed. The starting level of the aldehyde (II) was 0.20%. After two months at +40° C. and 75% relative humidity the concentration of the aldehyde (II) had increased to 2.3%. In a control experiment where the treatment with the resin was omitted, the level of the aldehyde (II) increased to 3.0%.

[2] = Stability after purging with different air/nitrogen gas mixtures; format: physicochemical; conditions: 400 mg/ml, pH 8.5; for Final Amount of Aldehyde (II) / Final Amount of Related Substances: 2 months +40° C./75% RH
Method: A concentrated aqueous solution of α-(2,4-disulfophenyl)-N-tert-butylnitrone disodium salt (400 mg/ml) and disodium hydrogen phosphate (5.3 mM) at pH 8.5 was purged with different levels of air/nitrogen gas mixtures. The solutions were stored in sealed 10 ml glass vials with a fill volume of 7 ml. The samples were stored for two months at +40° C. and 75% relative humidity.

[3] = Stability versus vial headspace volume (fill volume); format: physicochemical; conditions: 400 mg/ml; for Final Amount of Aldehyde (II): pH 8.5, headspace not purged, 2 months +40° C./75% RH
Method: A concentrated aqueous solution of α-(2,4-disulfophenyl)-N-tert-butylnitrone disodium salt (400 mg/ml) and disodium hydrogen phosphate (10.5 mM) at pH 8.5 was purged with nitrogen for 30 minutes. Either 8 ml or 13 ml portions of this solution were then placed in standard 10 ml glass vials (the maximum possible fill volume of a standard 10 ml glass vial is 13 ml). The headspace was not purged with nitrogen. The vials were sealed and stored at +40° C. and 75% relative humidity for two months.

[4] = Photodegradation of aqueous solutions under indoor light; format: physicochemical; conditions: 400 mg/ml aqueous concentrate, room temperature, 8 hours, disodium salt
[5] = Effect of concentration on stability, carbonate-buffered solutions, 40 days +40° C.; format: physicochemical; conditions: 50 mM sodium hydrogen carbonate; for Final Amount of Aldehyde (II): 40 days +40° C./75% RH
Method: In an experiment, aqueous solutions of three different concentrations of α-(2,4-disulfophenyl)-N-tert-butylnitrone disodium salt buffered with sodium hydrogen carbonate (50 mM) were dispensed into 20 ml glass vials, sealed, and then stored for 40 days at +40° C. and 75% relative humidity.

A. niger = assay: Antimicrobial efficacy (European Pharmacopoeia 2000, Chapter 5.1.3); format: cell-based
Method: (§1) The antimicrobial efficacy was tested for three different solutions:
(§2) i) α-(2,4-disulfophenyl)-N-tert-butylnitrone disodium salt, 10 mg/ml;
(§3) ii) α-(2,4-disulfophenyl)-N-tert-butylnitrone disodium salt, 400 mg/ml; and
(§4) iii) a carbonate buffer control.
(§5) The tests were performed according to European Pharmacopoeia 2000, Chapter 5.1.3, pages 259 to 260. Seven 10 ml vials were inoculated, one per test organism. During the tests, the vials were stored at controlled room temperature and protected from light. At different time intervals, samples were withdrawn and after appropriate dilutions the numbers of viable microorganisms (colony forming units per ml, CFU/ml) were determined using standard plate count procedures.

Bur. cepacia = assay: as above; format: cell-based; conditions: 10 mg/ml
Method: as §1, §2, §3, §4, §5

Compound: CC(C)(C)[N+]([O-])=Cc1ccc(S(=O)(=O)[O-])cc1S(=O)(=O)[O-].[Na+].[Na+] [α-(2,4-disulfophenyl)-N-tert-butylnitrone disodium salt]
- Concentration of the aldehyde (II) ([1]; Chelex-100 treated, 2 months +40° C./75% RH): 2.3%
- Starting level of the aldehyde (II) ([1]; Chelex-100 treated, start): 0.20%
- Level of the aldehyde (II) ([1]; resin treatment omitted, 2 months +40° C./75% RH): 3.0%
- Initial aldehyde (II) ([2]; 5.3 mM phosphate, initial): 0.25 area %
- Initial related substances ([2]; 5.3 mM phosphate, initial): 0.56 area %
- Final Amount of Aldehyde (II) ([2]; 0% air in purge gas): 0.57 area %
- Final Amount of Related Substances ([2]; 0% air in purge gas): 1.3 area %
- Final Amount of Aldehyde (II) ([2]; 6.25% air in purge gas): 0.68 ± 0.08 (n = 2) area %
- Final Amount of Related Substances ([2]; 6.25% air in purge gas): 1.5 ± 0.1 (n = 2) area %
- Final Amount of Aldehyde (II) ([2]; 12.5% air in purge gas): 0.63 ± 0.01 (n = 2) area %
- Final Amount of Related Substances ([2]; 12.5% air in purge gas): 1.4 area %
- Final Amount of Aldehyde (II) ([2]; 25% air in purge gas): 0.77 area %
- Final Amount of Related Substances ([2]; 25% air in purge gas): 1.6 area %
- Final Amount of Aldehyde (II) ([2]; 50% air in purge gas): 0.93 area %
- Final Amount of Related Substances ([2]; 50% air in purge gas): 1.9 area %
- Final Amount of Aldehyde (II) ([2]; 100% air in purge gas): 1.27 area %
- Final Amount of Related Substances ([2]; 100% air in purge gas): 2.4 area %
- Initial aldehyde level ([3]; 10.5 mM phosphate, pH 8.5, nitrogen purged, initial): 0.1%
- Final Amount of Aldehyde (II) ([3]; fill volume 8 ml in 10 ml vial): 1.1 area %
- Final Amount of Aldehyde (II) ([3]; fill volume 13 ml in 10 ml vial): 0.6 area %
- Photodegradation [4]: no photodegradation; also recorded: no degradation at all
- Final Amount of Aldehyde (II) ([5]; 200 mg/ml): 3.5 Area %
- Initial Amount of Aldehyde (II) ([5]; 200 mg/ml): 1.7 Area %
- Final Amount of Aldehyde (II) ([5]; 300 mg/ml): 3.2 Area %
- Initial Amount of Aldehyde (II) ([5]; 300 mg/ml): 1.7 Area %
- Final Amount of Aldehyde (II) ([5]; 400 mg/ml): 2.9 Area %
- Initial Amount of Aldehyde (II) ([5]; 400 mg/ml): 1.8 Area %
- Number of CFUs per ml - Time after Inoculation (A. niger; 10 mg/ml, 6 h): 4.5 × 10^4 CFUs per ml
- Number of CFUs per ml - Time after Inoculation (A. niger; 10 mg/ml, 24 h): 5.0 × 10^4 CFUs per ml
- Number of CFUs per ml - Time after Inoculation (A. niger; 10 mg/ml, 48 h): 5.5 × 10^4 CFUs per ml
- Number of CFUs per ml - Time after Inoculation (A. niger; 10 mg/ml, 7 days): 3.0 × 10^4 CFUs per ml
- Number of CFUs per ml - Time after Inoculation (A. niger; 10 mg/ml, 14 days): 1.0 × 10^3 CFUs per ml
- Number of CFUs per ml - Time after Inoculation (A. niger; 10 mg/ml, 21 days): 1.0 × 10^2 CFUs per ml
- Number of CFUs per ml - Time after Inoculation (A. niger; 10 mg/ml, 28 days): ≦10 CFUs per ml
- Number of CFUs per ml - Time after Inoculation (A. niger; 10 mg/ml, <1 min): 5.0 × 10^4 CFUs per ml
- Number of CFUs per ml - Time after Inoculation (A. niger; 400 mg/ml, 6 h): 5.9 × 10^4 CFUs per ml
- Number of CFUs per ml - Time after Inoculation (A. niger; 400 mg/ml, 24 h): 3.4 × 10^4 CFUs per ml
- Number of CFUs per ml - Time after Inoculation (A. niger; 400 mg/ml, 48 h): 1.7 × 10^4 CFUs per ml
- Number of CFUs per ml - Time after Inoculation (A. niger; 400 mg/ml, 7 days): 1.9 × 10^2 CFUs per ml
- Number of CFUs per ml - Time after Inoculation (A. niger; 400 mg/ml, 14 days): <1 CFUs per ml
- Number of CFUs per ml - Time after Inoculation (A. niger; 400 mg/ml, 21 days): <1 CFUs per ml
- Number of CFUs per ml - Time after Inoculation (A. niger; 400 mg/ml, 28 days): <1 CFUs per ml
- Number of CFUs per ml - Time after Inoculation (A. niger; 400 mg/ml, <1 min): 1.0 × 10^5 CFUs per ml
- Number of CFUs per ml - Time after Inoculation (Bur. cepacia; 6 h): 1.5 × 10^3 CFUs per ml
- Number of CFUs per ml - Time after Inoculation (Bur. cepacia; 24 h): <1 CFUs per ml
- Number of CFUs per ml - Time after Inoculation (Bur. cepacia; 48 h): <1 CFUs per ml
